Experiments:
Ig light chain [1] = assay: Ig-LC-induced ear swelling after hapten challenge of mice passively sensitized with TNP-specific Ig-LC (inhibition by F991); assay type: in vivo
Description: F991 is developed as an antagonist of Ig light chain. The working hypothesis for this compound is that it binds to Ig light chains and thereby prevents binding of light chains to their putative receptors. F991 is a 9-mer peptide derived from the endogenous protein uromodulin. The potency of F991 to inhibit Ig-LC induced cutaneous reactions (ear swelling responses) was studied. Our working hypothesis for this compound is that it is an antagonist of Ig-LC and binds to Ig-LC and thereby prevents binding of Ig-LC to their putative receptors. F991 was administered in different dosages, via various administration routes.
Indicated amounts of F991 per mouse were intravenously injected at 30 min before hapten challenge. At that same time point mice were injected (passively sensitized) with TNP-specific Ig-LC or vehicle (PBS). […]
Mice were i.v. sensitized with 2 µg TNP-specific Ig light chain at 30 min before ear challenge with TNP. Control mice were injected with PBS instead of Ig light chain. […]

DNFB-sensitized mice = assay: Contact sensitivity after active sensitization with DNFB, ear swelling; assay type: in vivo; conditions: F991 topically on the ears 4 hours before challenge
Method: • A. F991 was prepared as an ointment in Cremor Cetomacrogolis FNA and topically applied on the ear at 4 hours before hapten challenge. Subsequently, mice were passively sensitized with 2 µg TNP-specific Ig-LC n at 30 min before and ear thickness was measured 2 hours after hapten challenge of the ears. […] Therefore F991 was applied on the back of the mice instead of at the site of hapten challenge (ear). Mice were again sensitized and challenged as described above. […] This means that epicutaneous treatment should be done at the site of challenge (Figure 14). • C. Stability of F991 in ointment To determine the stability of F991 in ointment, different preparations of F991 in Cremor Cetamacrogolis FNA were tested for their activity after storage for 2-3 months at room temperature and at 4 degrees Celsius. The different preparations were applied at the ear as described in A. and subsequently ear swelling was monitored after hapten challenge of Ig-LC-sensitized animals. […] Mice were sensitized with a low molecular weight compound DNFB on the skin and footpads (on day 0 and 1). […]
Topical treatment of DNFB-sensitized mice at 4 hours before hapten challenge results in complete inhibition of the development of contact sensitivity response as determined by earswelling at 2 and 24 hours after challenge.

[2] = test system: myelin oligodendrocyte glycoprotein (MOG)-induced experimental allergic encephalomyelitis (EAE); assay: MOG-induced experimental allergic encephalomyelitis (EAE), mouse model for MS; assay type: in vivo
Description: If light chains were involved in the activation of mast cells in patients with MS, the prediction is that F991 may be of therapeutic interest in the treatment of MS. We tested if F991 was able to prevent of reduce development clinical signs in an established mouse model for MS, i.e. myelin oligodendrocyte glycoprotein (MOG)-induced experimental allergic encephalomyelitis (EAE). Mouse were sensitized with antigenic peptide 35-55 from MOG in complete freund adjuvant. At the day of sensitization and 3 days later, mice also received an injection with pertussis toxin. In general, 10-12 days after the start of sensitization mice develop clinical signs of MS, which can be scored in degree of paralysis (0=no paralysis, 1=tail flaccidity, 2=hind limb weakness, 3=hind limb paralysis, 4=forelimb paralysis or loss of ability to right supine, 5=death). To investigate if F991 is able to prevent development of clinical signs of MS, mice were daily injected with 50 µg F991/animal i.p. starting at day -1 until day 21. […] Control mice developed disease with a mean day of onset of 11.8 and a mean clinical score of 2.3. There was a significant difference in disease burden (mean cumulative EAE score) between the F991 (mean 4.2) treated group and the control group (mean 18.3). […] (Figure 17).

Ig light chain [3] = assay: Stability of F991 in ointment, read out as activity in the ear swelling test after storage; assay type: in vivo, mice; conditions: Cremor Cetamacrogolis FNA, stored 2-3 months at room temperature and at 4 degrees Celsius
Method: • A. F991 was prepared as an ointment in Cremor Cetomacrogolis FNA and topically applied on the ear at 4 hours before hapten challenge. Subsequently, mice were passively sensitized with 2 µg TNP-specific Ig-LC n at 30 min before and ear thickness was measured 2 hours after hapten challenge of the ears. […] Therefore F991 was applied on the back of the mice instead of at the site of hapten challenge (ear). Mice were again sensitized and challenged as described above. […] This means that epicutaneous treatment should be done at the site of challenge (Figure 14). • C. Stability of F991 in ointment To determine the stability of F991 in ointment, different preparations of F991 in Cremor Cetamacrogolis FNA were tested for their activity after storage for 2-3 months at room temperature and at 4 degrees Celsius. The different preparations were applied at the ear as described in A. and subsequently ear swelling was monitored after hapten challenge of Ig-LC-sensitized animals. […] Mice were sensitized with a low molecular weight compound DNFB on the skin and footpads (on day 0 and 1). 5 days after the start of sensitization and 4 hours before local challenge with hapten, mice were treated with F991 on the ears.

[4] = 50 µg F991/animal i.p. daily from day -1 until day 21

Substance: F991: 9-mer peptide derived from the endogenous protein uromodulin, developed as an antagonist of Ig light chain; sequence probably AHWSGHCCL
- block of the Ig-LC -induced ear swelling (Ig light chain [1]; 2 µg per mouse (1.9 nmole) i.v. 30 min before hapten challenge, 2 hours after challenge): completely block
- induction of an ear swelling response (Ig light chain [1]; 50 µg F991 intraperitoneally at 4 or 24 hours before hapten challenge): completely prevented
- Ig-LC -induced ear swelling after hapten challenge (Ig light chain [1]; 50 µg F991 subcutaneously at 4 or 24 hours before hapten challenge): completely inhibited
- systemic inhibition of the Ig-LC effects (Ig light chain [1]; F991 ointment applied on the back of the mice instead of the ear): does not result in systemic inhibition
- inhibition of the ear swelling induced after hapten challenge (Ig light chain [1]; F991 ointment in Cremor Cetomacrogolis FNA applied on the ear 4 hours before hapten challenge, 2 hours after challenge): dose-dependent inhibition
- inhibition of the ear swelling response (Ig light chain [1]; different amounts of F991 i.v. 30 min before hapten challenge, ear thickness 2 hours after challenge): dose-dependent inhibition
- ear swelling, contact sensitivity (DNFB-sensitized mice; 2 hours after challenge): completely inhibited
- ear swelling, contact sensitivity (DNFB-sensitized mice; 24 hours after challenge): completely inhibited
- development of clinical signs of paralysis [2, 4]: completely prevented
- disease burden (mean cumulative EAE score) [2, 4]: 4.2
- clinical symptoms after termination of the treatment ([2]; termination of F991 at 21 days after sensitization): some minor clinical symptoms
- stability of F991 in ointment (activity after storage) (Ig light chain [3]): retained its activity

— patent publication EP1342779A1, “Means and methods for manipulating hypersensitivity-like responses” (Fornix Biosciences N.V., priority 2002, dated 2003)
